# Test results taken from US10369146B2, “Phenyl linked quinolinyl modulators of RORγt” (Janssen Pharmaceutica NV, priority 2013, dated 2019).
# Structures can show the parent of a compound that is named as a salt.
# Assays:
# [1] = system: IL-17 production by CD4 T cells; experiment: Human Th17 assay (IL-17 production by CD4 T cells under Th17 differentiation); type: cell-based; conditions: 3 days, IL-17 in supernatant
# Method: The human Th17 assay tests the effect of RORγt modulatory compounds on IL-17 production by CD4 T cells under conditions which favor Th17 differentiation. Total CD4^+ T cells were isolated from the peripheral blood mononuclear cells (PBMC) of healthy donors using a CD4^+ T cell isolation kit II, following the manufacturer's instructions (Miltenyi Biotec). […] 50 μL of compound at titrated concentrations in DMSO were added into each well at final DMSO concentration at 0.2%. Cells were incubated for 1 hour, then 50 μL of Th17 cell differentiation medium was added to each well. The final concentrations of antibodies and cytokines (R&D Systems) in differentiation medium were: 3×10^6/mL anti-CD3/CD28 beads (prepared using human T cell activation/expansion kit, Miltenyi Biotec), 10 μg/mL anti-IL4, 10 μg/mL anti-IFNγ, 10 ng/mL IL1β, 10 ng/mL IL23, 50 ng/mL IL6, 3 ng/mL TGFβ and 20 U/mL IL2. Cells were cultured at 37° C. and 5% CO2 for 3 days. Supernatants were collected and the accumulated IL-17 in culture was measured by using MULTI-SPOT® Cytokine Plate following manufacture's instruction (Meso Scale Discovery). The plate was read using Sector Imager 6000, and IL-17 concentration was extrapolated from the standard curve. The IC50s were determined by GraphPad.
# human RORγt LBD = target: T1, human RORγt LBD (Homo sapiens, UniProt P51449); experiment: RORγt reporter assay (GAL4-RORγt LBD luciferase, HEK293T cells); type: cell-based; conditions: for IC50 / RORγt reporter Assay, % inhibition @ 6 μM: HEK293T cells; for IC50: 24 hours compound treatment, firefly/renilla luciferase ratio; for RORγt reporter Assay, % inhibition @ 6 μM: 6 μM compound; for inhibition at 6 µM: HEK-293T, read-out: RORγt reporter Assay, % inhibition @ 6 μM, 6 μM compound, HEK293T cells
# T1 construct: expressed in transfected cells; host or cells: HEK293T
# T1 sequence (P51449 258-518): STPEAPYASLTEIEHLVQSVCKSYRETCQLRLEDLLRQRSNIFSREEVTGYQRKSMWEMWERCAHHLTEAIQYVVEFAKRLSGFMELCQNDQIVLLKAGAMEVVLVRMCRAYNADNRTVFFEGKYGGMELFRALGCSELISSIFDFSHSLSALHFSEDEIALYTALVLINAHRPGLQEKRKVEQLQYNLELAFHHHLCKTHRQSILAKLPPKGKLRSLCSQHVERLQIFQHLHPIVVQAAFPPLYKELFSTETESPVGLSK
# Source text: A reporter assay was used to test functional activity of RORγt modulatory compounds on transcriptional activation driven by the RORγt LBD. Cells used in the assay were co-transfected with two constructs. The first construct, pBIND-RORγt LBD, contained the wild type human RORγt LBD fused to the DNA binding domain of the GAL4 protein. The second construct, pGL4.31 (Promega Cat no. C935A), contained multiple GAL4 responsive DNA elements upstream of firefly luciferase. […] The mutant construct was called pBIND-RORγt-AF2.
# The pBIND vector contains the GAL4 DNA Binding Domain (GAL4 DBD) and the renilla luciferase gene under control of the SV40 promoter. Renilla luciferase expression serves as a control for transfection efficiency and cell viability.
# The reporter assay was performed by transiently transfecting HEK293T cells with 5 μg of pBIND-RORγt LBD or pBIND-RORγt LBD-AF2 and 5 μg pGL4.31 (Promega Cat no. C935A) using Fugene 6 (Invitrogen Cat no. E2691) at a 1:6 ratio of DNA:Fugene 6 in a T-75 flask in which cells were at least 80% confluent. Twenty four hours after bulk transfection, cells were plated into 96-well plates at 50,000 cells/well in phenol-red free DMEM containing 5% Lipid Reduced FCS and Pen/Strep. Six hours after plating, cells were treated with compounds for 24 hours. Media was removed and cells were lysed with 50 μL 1×Glo Lysis Buffer (Promega). Dual Glo Luciferase Reagent (50 μL/well) was then added and firefly luciferase luminescence was read on an Envision after a ten minute incubation. Finally, Stop and Glo reagent (50 IAL/well) was added and renilla luciferase luminescence was read on an Envision instrument after a ten minute incubation. To calculate the effect of compounds on RORγt activity, the ratio of firefly to renilla luciferase was determined and plotted against compound concentration. Agonist compounds increase RORγt-driven luciferase expression, and antagonist or inverse agonist compounds decrease luciferase expression.
# [2] = target: T2, human RORγt ligand binding domain (RORγt LBD) (Homo sapiens, UniProt P51449); experiment: RORγt ThermoFluor® assay (thermal shift binding); conditions: RORγt LBD, 1,8-ANS dye, pH 7.0; Kd estimated from thermal shift
# T2 construct: His-tag (N); TurboTEV protease cleavage site (ENLYFQG) (N); made in house; host or cells: E. coli (pHIS1, modified pET vector)
# T2 sequence (P51449 with tags, fused parts or gaps): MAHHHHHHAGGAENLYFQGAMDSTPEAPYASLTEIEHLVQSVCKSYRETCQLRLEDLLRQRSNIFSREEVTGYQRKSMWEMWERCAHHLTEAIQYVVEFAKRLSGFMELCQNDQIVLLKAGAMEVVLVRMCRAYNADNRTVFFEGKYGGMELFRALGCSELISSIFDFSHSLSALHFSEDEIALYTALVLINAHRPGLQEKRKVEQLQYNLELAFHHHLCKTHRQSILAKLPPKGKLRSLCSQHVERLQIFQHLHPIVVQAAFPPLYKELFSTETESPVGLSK
# Method: This approach is applicable to a wide variety of systems, and rigorous in theoretical interpretation through quantitation of equilibrium binding constants (KD).
# The shift in the melting point described as a ΔTm is proportional to the concentration and affinity of the ligand.
# Protein and compound solutions are dispensed into black 384-well polypropylene PCR microplates (Abgene) and overlayed with silicone oil (1 μL, Fluka, type DC 200) to prevent evaporation.
# Bar-coded assay plates are robotically loaded onto a thermostatically controlled PCR-type thermal block and then heated at a typical ramp-rate of 1° C./min for all experiments. Fluorescence was measured by continuous illumination with UV light (Hamamatsu LC6) supplied via fiber optic and filtered through a band-pass filter (380-400 nm; >6 OD cutoff). Fluorescence emission of the entire 384-well plate was detected by measuring light intensity using a CCD camera (Sensys, Roper Scientific) filtered to detect 500±25 nm, resulting in simultaneous and independent readings of all 384 wells. Images were collected at each temperature, and the sum of the pixel intensity in a given area of the assay plate was recorded versus temperature. Reference wells contained RORγt without compounds, and the assay conditions were as follows: • 0.065 mg/mL RORγt • 60 μM 1,8-ANS • 100 mM Hepes, pH 7.0 • 10 mM NaCl • 2.5 mM GSH • 0.002% Tween-20
# Project compounds were arranged in a pre-dosed mother plate (Greiner Bio-one) wherein compounds are serially diluted in 100% DMSO by 1:2 from a high concentration of 10 mM over 12 columns within a series (column 12 is a reference well containing DMSO, no compound). The compounds were robotically dispensed directly into assay plates (1×=46 nL) using a Hummingbird capillary liquid handling instrument (Digilab). Following compound dispense, protein and dye in buffer was added to achieve the final assay volume of 3 μL, followed by 1 μL of silicone oil.
SMILES,IC50 (human RORγt LBD) [nM],Kd [2] [nM],"RORγt reporter Assay, % inhibition @ 6 μM (human RORγt LBD) [%]",also measured
"Cc1cc(C(O)(c2ccc(C(F)(F)F)nc2)c2cncn2C)cc2c(C#N)c(-c3ccccc3)c(C#N)nc12 (single isomer, unassigned) [Example 25c, 6-(Hydroxy(1-methyl-1H-imidazol-5-yl)(6-(trifluoromethyl)pyridin-3-yl)methyl)-8-methyl-3-phenylquinoline-2,4-dicarbonitrile]",–,–,–,"IC50 ([1]; Homo sapiens, CD4+ T, 72 h): 160 nM"
"COc1nc2ccc(C(O)(c3cncn3C)C3CCN(C(C)=O)CC3)cc2c(C#N)c1-c1cccc(C(F)(F)F)c1 (single isomer, unassigned) [Example 2c, 6-((1-Acetylpiperidin-4-yl)(hydroxy)(1-methyl-1H-imidazol-5-yl)methyl)-2-methoxy-3-(3-(trifluoromethyl)phenyl)quinoline-4-carbonitrile]",170,–,–,–
"COc1c(-c2ccccc2)c(Cl)nc2ccc(C(O)(c3cnnn3C)c3cnc(C)n3C)cc12 (single isomer, unassigned) [Example 40b, (2-Chloro-4-methoxy-3-phenylquinolin-6-yl)(1,2-dimethyl-1H-imidazol-5-yl)(1-methyl-1H-1,2,3-triazol-5-yl)methanol]",680,150,–,–
"Cn1cncc1C(O)(c1ccc(Cl)cc1)c1ccc2nc(Cl)c(-c3ccccc3)c(Cl)c2c1 (stereo not shown) [Example 65, (4-Chlorophenyl)(2,4-dichloro-3-phenylquinolin-6-yl)(1-methyl-M-imidazol-5-yl)methanol]",–,–,–,IC50 ([1]; 72 h): 1800 nM
"COc1c(-c2ccccc2)c(Cl)nc2ccc(C(O)(c3cnnn3C)c3cnc(C)n3C)cc12 (single isomer, unassigned) [Example 40c, (2-Chloro-4-methoxy-3-phenylquinolin-6-yl)(1,2-dimethyl-1H-imidazol-5-yl)(1-methyl-1H-1,2,3-triazol-5-yl)methanol]",190,120,–,–
"Cc1nc(C)c(C(O)(c2ccc3nc(Cl)c(-c4ccccc4)c(Cl)c3c2)c2cncn2C)s1 (stereo not shown) [Example 68, (2,4-Dichloro-3-phenylquinolin-6-yl)(2,4-dimethylthiazol-5-yl)(1-methyl-1H-imidazol-5-yl)methanol]",–,–,–,IC50 ([1]; 72 h): 20 nM

# Continued, in another order:
IC50 (human RORγt LBD) [nM],Kd [2] [nM],"RORγt reporter Assay, % inhibition @ 6 μM (human RORγt LBD) [%]",SMILES,also measured
42,5,103,"Cn1cncc1C(O)(c1ccc(Cl)cc1)c1ccc2nc(C(F)(F)F)c(-c3ccccc3)c(C#N)c2c1 (single isomer, unassigned) [Example 31b, 6-((4-Chlorophenyl)(hydroxy)(1-methyl-1H-imidazol-5-yl)methyl)-3-phenyl-2-(trifluoromethyl)quinoline-4-carbonitrile]","IC50 ([1]; Homo sapiens, CD4+ T, 72 h): 20 nM"
1600,3300,85,"Cn1cncc1C(O)(c1ccc(Cl)cc1)c1ccc2nc(C(F)(F)F)c(-c3ccccc3)c(C#N)c2c1 (single isomer, unassigned) [Example 31c, 6-((4-Chlorophenyl)(hydroxy)(1-methyl-1H-imidazol-5-yl)methyl)-3-phenyl-2-(trifluoromethyl)quinoline-4-carbonitrile]",–
150,–,–,"Cn1cncc1C(O)(c1ccc(Cl)cc1)c1ccc2nc(C(F)(F)F)c(-c3ccccc3)c(C#N)c2c1 (single isomer, unassigned) [Example 31a, 6-((4-Chlorophenyl)(hydroxy)(1-methyl-1H-imidazol-5-yl)methyl)-3-phenyl-2-(trifluoromethyl)quinoline-4-carbonitrile.TFA]",inhibition at 6 µM (human RORγt LBD): 102%
49,300,95,"CC(=O)N1CCC(C(O)(c2cccnc2)c2ccc3nc(C(F)(F)F)c(-c4ccccc4)c(C#N)c3c2)CC1 (single isomer, unassigned) [Example 30b, 6-((1-Acetylpiperidin-4-yl)(hydroxy)(pyridin-3-yl)methyl)-3-phenyl-2-(trifluoromethyl)quinoline-4-carbonitrile]",IC50 [1]: 57 nM
110,23,–,"CC(=O)N1CCC(C(O)(c2cccnc2)c2ccc3nc(C(F)(F)F)c(-c4ccccc4)c(C#N)c3c2)CC1 (single isomer, unassigned) [Example 30a, 6-((1-Acetylpiperidin-4-yl)(hydroxy)(pyridin-3-yl)methyl)-3-phenyl-2-(trifluoromethyl)quinoline-4-carbonitrile.TFA]",inhibition at 6 µM (human RORγt LBD): 91%
140,9,93,"CC(=O)N1CCC(C(O)(c2cccnc2)c2ccc3nc(C(F)(F)F)c(-c4ccccc4)c(C#N)c3c2)CC1 (single isomer, unassigned) [Example 30c, 6-((1-Acetylpiperidin-4-yl)(hydroxy)(pyridin-3-yl)methyl)-3-phenyl-2-(trifluoromethyl)quinoline-4-carbonitrile]",IC50 [1]: 2200 nM
